Data: patent US7129238B2, “Mandelic acid derivatives” (Hoffmann-La Roche Inc., priority 2002, dated 2006)
Counter-ions that a name gives are not always drawn.

Molecular target: T1, factor VIIa/tissue factor complex (Homo sapiens, UniProt P08709)
T1 construct: 9 nM of soluble factor VIIa
Test: inhibition of the amidolytic activity of factor VIIa/tissue factor complex (chromogenic peptide substrate)
Format: biochemical
Settings: soluble factor VIIa, substrate Chromozym-tPA, pH 7.5, room temperature
Protocol: The measurements were carried out by an automated robotic assay on microtitre plates at room temperature. To this end, 100 μL of a solution of 26 nM of tissue factor, 9 nM of soluble factor VIIa and 8 mM of calcium chloride were added to 25 μL of a solution of the inhibitor in a buffer [pH 7.5, 100 mM, comprising 0.14M NaCl, 0.1M N-(2-hydroxyethyl)piperazine-N′-(2-ethanesulphonic acid) (HEPES), 0.5 mg/l of fatty-acid-free BSA (bovine serum albumin) and 0.05% NaN3] in each well of the plate. After an incubation time of 15 minutes the reaction was started by the addition of 50 μl of chromogenic substrate Chromozym-tPA (3.5 mM, MeSO2-D-Phe-Gly-Arg-paranitroanilide) and the hydrolysis of the substrate was followed spectrophotometrically on a kinetic microtitre plate reader over 10 minutes. Using the plot of the inhibition curves, the Ki values were determined according to the method described in Biochem. J. 55, 1953, 170–171.

T1 sequence (P08709 213-466 limits assumed): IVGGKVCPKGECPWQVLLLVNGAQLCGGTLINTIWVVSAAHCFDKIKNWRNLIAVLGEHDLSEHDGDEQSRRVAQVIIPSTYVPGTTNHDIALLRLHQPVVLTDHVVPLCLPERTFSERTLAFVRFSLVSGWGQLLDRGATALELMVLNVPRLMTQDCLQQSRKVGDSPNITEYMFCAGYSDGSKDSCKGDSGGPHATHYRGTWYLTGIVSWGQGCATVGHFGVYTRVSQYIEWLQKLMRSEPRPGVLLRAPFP
T1 sequence (P08709 61-212 limits assumed): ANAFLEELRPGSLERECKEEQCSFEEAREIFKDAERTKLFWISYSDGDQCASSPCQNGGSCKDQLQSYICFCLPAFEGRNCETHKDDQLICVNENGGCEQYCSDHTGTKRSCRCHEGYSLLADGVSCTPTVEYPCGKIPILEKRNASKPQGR
T1 sequence (P13726 33-295 partner): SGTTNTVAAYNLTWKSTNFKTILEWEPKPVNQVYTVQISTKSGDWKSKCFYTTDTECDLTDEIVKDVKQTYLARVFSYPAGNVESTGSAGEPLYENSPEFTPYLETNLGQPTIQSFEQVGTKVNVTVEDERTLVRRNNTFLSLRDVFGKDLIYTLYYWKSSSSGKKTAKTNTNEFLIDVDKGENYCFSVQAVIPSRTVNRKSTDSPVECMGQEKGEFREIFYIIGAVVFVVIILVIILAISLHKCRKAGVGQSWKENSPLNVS

Ki [nM] | Compound
586 | CCOC(C(=O)NCc1ccc(C(=N)N)cc1)c1c(F)cc(OCc2ccccn2)cc1F (racemic) [Example 294.2, (RS)-N-(4-carbamimidoyl-benzyl)-2-[2,6-difluoro-4-(pyridin-2-ylmethoxy)-phenyl]-2-ethoxy-acetamide hydrochloride]
371 | CCOC(C(=O)NCc1ccc(C(=N)N)cc1)c1c(F)cc(-c2cccnc2)cc1F (racemic) [Example 267, (RS)-N-(4-Carbamimidoyl-benzyl)-2-(2,6-difluoro-4-pyridin-3-yl-phenyl)-2-ethoxy-acetamide hydrochloridr]
598 | CCOC(C(=O)NCc1c(F)cc(C(=N)N)cc1F)c1c(F)cc(-c2ccc(N)nc2)cc1F (racemic) [Example 336.2, (RS)-2-[4-(6-amino-pyridin-3-yl)-2,6-difluoro-phenyl]-N-(4-carbamimidoyl-2,6-difluoro-benzyl)-2-ethoxy-acetamide acetate]
242 | CCOC(C(=O)NCc1ccc(C(=N)N)cc1)c1c(F)cc(-c2cnc(N)nc2)cc1F (racemic) [Example 266, (RS)-2-[4-(2-Amino-pyrimidin-5-yl)-2,6-difluoro-phenyl]-N-(4-carbamimidoyl-benzyl)-2-ethoxy-acetamide hydrochloride]
121 | CCOC(C(=O)NCc1ccc(C(=N)N)cc1NCC(=O)O)c1ccc(OC)cc1F (racemic) [Example 329, (RS)-(5-carbamimidoyl-2-j [2-ethoxy-2-(2-fluoro-4-methoxy-phenyl)-acetylamino]-methyl)-phenylamino)-acetic acid acetate]
154 | CCOC(C(=O)NCc1ccc(C(=N)N)cc1)c1c(F)cc(-c2ccc(N)nc2)cc1F (racemic) [Example 271, (RS)-(2-[4-(6-Amino-pyridin-3-yl)-2,6-difluoro-phenyl]-N-(4-carbamimidoyl-benzyl)-2-ethoxy-acetamide hydrochloride]
320 | CCOC(C(=O)NCc1ccc(C(=N)N)cc1)c1c(F)cc(-c2ccc(N)cn2)cc1F (racemic) [Example 269, (RS)-2-[4-(5-Amino-pyridin-2-yl)-2,6-difluoro-phenyl]-N-(4-carbamimidoyl-benzyl)-2-ethoxy-acetamide hydrochloride]
65 | CCOC(C(=O)NCc1ccc(C(=N)N)cc1NCc1ccccc1)c1ccc(OC)cc1F (racemic) [Example 323, (RS)-N-(2-Benzylamino-4-carbamimidoyl-benzyl)-2-ethoxy-2-(2-fluoro-4-methoxy-phenyl)-acetamide acetate]

Second part, the compound before the results:

Compound | Ki [nM]
COc1cc(F)c(C(OC)C(=O)NCc2ccc(C(=N)N)cc2)cc1OC (racemic) [Example 24.3, (RS)-N-(4-carbamimidoyl-benzyl)-2-(2-fluoro-4,5-dimethoxy-phenyl)-2-methoxy-acetamide hydrochloride] | 2210
CCOC(C(=O)NCc1ccc(C(=N)N)cc1OCC(N)=O)c1c(F)cc(OC)cc1F (racemic) [Example 126.3, (RS)-N-(4-carbamimidoyl-2-carbamoylmethoxy-benzyl)-2-(2,6-difluoro-4-methoxy-phenyl)-2-ethoxy-acetamide hydrochloride] | 20
(RS)-{4-Carbamimidoyl-2-[(pyridin-2-ylmethyl)-amino]-benzyl}-2-ethoxy-2-(2-fluoro-4-methoxy-phenyl)-acetamide hydrochloride [Example 325] | 77
COc1ccc2cc(C(OC)C(=O)NCc3ccc(C(=N)N)cc3)ccc2c1 (racemic) [Example 53.3, (RS)-N-(4-carbamimidoyl-benzyl)-2-methoxy-2-(6-methoxy-naphthalen-2-yl)-acetamide hydrochloride] | 2260
CCOC(C(=O)NCc1ccc(C(=N)N)cc1OCC(=O)NCCOC)c1c(F)cc(OC)cc1F (racemic) [Example 129, (RS)-N-{4-Carbamimidoyl-2-[(2-methoxy-ethylcarbamoyl)-methoxy]-benzyl}-2-(2,6-difluoro-4-methoxy-phenyl)-2-ethoxy-acetamide hydrochloride] | 21
COc1cc(F)c(C(OC)C(=O)NCc2ccc(C(=N)N)cc2OCc2ccccn2)c(F)c1 (racemic) [Example 141, (RS)-N-[4-carbamimidoyl-2-(pyridin-2-ylmethoxy)-benzyl]-2-(2,6-difluoro-4-methoxy-phenyl)-2-methoxy-acetamide hydrochloride] | 44
(RS)-(4-carbamimidoyl-2-carbamoylmethoxy-benzyl)-2-[2,6-difluoro-4-(pyridin-2-ylmethoxy)-phenyl]-2-ethoxy-acetamide hydrochloride [Example 335.5] | 17
CCOc1ccc(C(OC)C(=O)NCc2ccc(C(=N)N)cc2)c(F)c1OCC (racemic) [Example 33.3, (RS)-N-(4-carbamimidoyl-benzyl)-2-(3,4-diethoxy-2-fluoro-phenyl)-2-methoxy-acetamide hydrochloride] | 490
COC(C(=O)NCc1ccc(C(=N)N)cc1)c1ccc(OCCc2ccc(F)cc2)cc1F (racemic) [Example 72.2, (RS)-N-(4-carbamimidoyl-benzyl)-2-{2-fluoro-4-[2-(4-fluoro-phenyl)-ethoxy]-phenyl}-2-methoxy-acetamide hydrochloride] | 2100
